# According to patent EP0189002B1, “Treatment of gastrointestinal disorders using 5-HT3 antagonists” (SANDOZ AG, priority 1984, dated 1986):
# Tests used:
# [1] = system: muscle strips from different parts of the guinea pig stomach; experiment: Test A: field stimulation-induced contractions in guinea pig stomach muscle strips; settings: facilitation of field stimulation-induced contractions
# Excerpt: The compounds of the invention facilitate field stimulation-induced contractions in muscle strips from different parts of the guinea pig stomach and are therefore indicated to increase decreased peristaltic movements in the stomach and to enhance gastric emptying in vivo. The test is effected as follows:-Male Dunkin-Hartley guinea pigs, 340-450 g, which had been starved overnight, were killed by cervical transsection and the stomach removed and placed in Krebs-Henseleit solution (NaCI 118.0, KCI 4.75, KH2P04 1.2, MgS04 1.2, CaC12 2.5, glucose 10 mM). Segments were taken from the body (approximately 20 mm long, 3-4 mm wide) with dissection in a plane suitable to investigate tension changes in the circular muscle layer. Tissues were placed in 30 ml organ baths containing oxygenated (95% 02, 5% C02) Krebs-Henseleit solution at 37 C. One gram tension was applied to the tissues which were allowed to equilibrate for 45-60 min. before electrical stimulation. […] Responses were measured as changes in gram tension, but to allow easier comparison between treatments, data were converted to show changes as percentage values. The significance of differences between control responses and those obtained in the presence of interacting drugs was assessed using the Mann-Whitney U test.
# [2] = Test B: gastric emptying in conscious guinea pigs (X-ray passage of spheroids); format: in vivo; settings: enhancing gastric emptying
# Procedure: The compounds of the invention also induce gastric emptying as indicated in standard in vivo tests, e.g. in conscious guinea pigs having stomachs made atonic (i.e. having decreased peristaltic movements) by fasting and wherein the passage of glass spheroids was observed by X-ray techniques. The experiment is effected as follows: • Food was withdrawn for 14 hours before the measurement of gastric emptying. The experiment was conducted under low illumination which minimal noise and disturbance, and was carried out only by those experimentors who had daily contact with the guinea pigs and who carried out the initial training to accustom the guinea pigs to handling. Therefore, animals were subject to minimal stress. […] Gastric emptying was measured as the number of spheroids leaving the stomach.
# Six guinea pigs were used at each dose level of drug and responses compared to those of guinea pigs receiving the appropriate vehicle. The significance of differences between drug and control responses was assessed using the Mann Whitney U test.
# [3] = Test C: inhibition of 5-hydroxytryptophan (5-HTP) induced increase in gastrointestinal motility (charcoal transit); format: in vivo, NMRI mice; settings: 30 minutes before 5-HTP 3 mg/kg, mice
# Procedure: In a further test the inhibition of the increase in gastrointestinal motility induced by 5-hydroxytryptophan (5-HTP) by the compounds of the invention was observed.
# Male NMRI mice (18-32 g in weight) are deprived of food 20 hours before the test. Water is not limited. The animals are separated by a barrier from their straw and access to feces. At the beginning of the test the animals are separated in individual single cages and water is removed.
# All animals were treated with the test compound or saline. l.p. administration was used. Injection volume was 0.1 ml/10 g. 30 minutes after pre-treatment 5-HTP or saline was administered. Injection volume 0.1 ml /10 g. Dose 3 mg/kg. At the same time charcoal was administered perorally (10% suspension in water; 0.1 ml/10g). 45 minutes after the start of the experiment the animals were killed. The intestines from the stomach to the rectum were examined. For each animal the transit distance of the front of the charcoal meal along the intestine was measured. The distance was ascertained as a percentage of the whole intestinal length. Groups of at least 3 animals were used.
# [4] = format: in vivo, NMRI mice; settings: cholera toxin challenged mice
# [5] = system: high affinity 5-HT receptor; experiment: 5-HT induced contraction of isolated longitudinal muscle of guinea pig ileum, high affinity receptor; settings: guinea pig ileum longitudinal muscle strip, 5-HT as agonist
# Excerpt: (§1) The isolated longitudinal muscle of the guinea pig ileum with its adhering myenteric plexus is a well established model which permits investigation of the mechanism of action of various neurtransmitters.
# (§2) Male guinea pigs (200-400 g) were killed by a blow on the head and exsanguinated. A length of small intestine was removed about 2 cm from the ileo-caecal valve. The mesentery was carefully removed and the ileum was stretched over a glass rod. By stroking tangentially away from the mesenteric attachment with a wad of cotton wool, the longitudinal muscle layer was separated and stripped from the unterlying circular muscle. Longitudinal muscle strips, 3-4 cm length, were mounted in a 10 ml organ bath containing Tyrode solution at 37 ° C and bubbled with 5% carbon dioxide in oxygen. […] Contractions were recorded with an isotonic pendulum lever. […]
# (§3) Non-cumulative concentration-response curves for 5-HT were established by adding increasing concentrations of the agonist to the organ bath at intervals of at least 15 min. […] The contractions expressed as percentage of the maximal response to 5-HT obtained from several preparations were plotted as mean values in order to obtain log-concentration-response curves. Inhibition constants were expressed in the form of pA2 values which were graphically determined according to conventional methods (Arunlakshana and Schild, 1959. Mc Kay 1978). […]
# [6] = molecular target: T1, low affinity 5-HT receptors (Cavia porcellus, UniProt O70212); experiment: 5-HT induced contraction of isolated longitudinal muscle of guinea pig ileum, low affinity receptor; settings: guinea pig ileum longitudinal muscle strip, 5-HT as agonist
# T1 construct: Longitudinal muscle strips, 3-4 cm length, were mounted in a 10 ml organ bath; from tissue; host or cells: guinea pig ileum longitudinal muscle with adhering myenteric plexus
# T1 sequence (O70212 20-490): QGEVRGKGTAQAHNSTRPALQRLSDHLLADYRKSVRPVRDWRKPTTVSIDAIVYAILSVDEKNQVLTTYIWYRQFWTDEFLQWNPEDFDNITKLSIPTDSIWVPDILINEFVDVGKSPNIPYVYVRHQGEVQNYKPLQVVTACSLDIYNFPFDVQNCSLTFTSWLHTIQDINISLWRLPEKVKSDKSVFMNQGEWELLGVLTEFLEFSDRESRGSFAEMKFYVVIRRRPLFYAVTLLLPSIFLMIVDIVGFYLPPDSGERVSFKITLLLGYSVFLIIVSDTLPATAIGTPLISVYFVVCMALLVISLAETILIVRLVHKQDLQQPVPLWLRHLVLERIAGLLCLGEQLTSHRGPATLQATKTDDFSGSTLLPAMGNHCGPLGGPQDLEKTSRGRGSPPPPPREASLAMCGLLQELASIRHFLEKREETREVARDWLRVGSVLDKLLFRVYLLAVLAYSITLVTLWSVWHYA
# Excerpt: as §1, §2, §3
# dopamine binding sites = settings: tritiated haloperidol; cited from earlier work
SMILES,ED50 i.p. [3],pD'2 high affinity receptor [5],pA2 low affinity receptor [6],further results
"CN1[C@@H]2CC[C@H]1C[C@@H](OC(=O)c1c[nH]c3ccccc13)C2 [Compound E, Indol-3-yl carboxylic acid endo-8-methyl-8-aza-bicyclo[3,2,1]-oct-3-yl ester]",0.07 mg/kg,pD'2 = 5.7,pA2 = 7.9,times more active than metoclopramide [1]: 100 times; times more active than metoclopramide [2]: about 50 times; effect of an increase in the dose on stomach contents [4]: did not lead to a reduction in the stomach contents
"CN1[C@@H]2CCC[C@H]1C[C@@H](OC(=O)c1csc3ccccc13)C2 [Compound F, Benzo[b]thiophen-3-yl carboxylic acid endo-9-methyl-asa-bicyclo-[3,3,1]non-3-yl ester]",–,pD'2 = 5.9,pA2 = 9.4,"ED50 ([3]; Mus musculus, i.p.): 0.025 mg/kg"
"CN1[C@@H]2CCC[C@H]1C[C@@H](OC(=O)c1cn(C)c3ccc(F)cc13)C2 [Compound G, 5-fluoro-1-methyl-indol-3-yl carboxylic acid endo-9-methyl-9-aza-bicyclo[3,3,1]non-3-yl ester]",0.002 mg/kg,–,–,–
CCN(CC)CCNC(=O)c1cc(Cl)c(N)cc1OC [metoclopramide],–,–,–,IC50 (dopamine binding sites): ~170 nM
